# From patent publication US20030064954A1, “Cationic amphiphilic 1,4-dihydropyridine derivatives useful for delivery of nucleotide containing compounds” (priority 2000, published 2003)
# Experiments:
# [1] = tested on: CV-1P (African monkey green kidney fibroblasts cells); test: In vitro transfection of plasmid DNA, β-galactosidase activity per well; format: cell-based; conditions: CVI-P
# Summary of the method: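 CV-1P cells (20 000/well) given compound/DNA complexes at various charge ratios, prepared in 50 mM MES–50 mM HEPES–75 mM NaCl pH 7.2, 0.6 μg DNA/well, for 5 h at 37 °C, then 45 h in growth medium. Lysates assayed for β-galactosidase via oNPG hydrolysis at 405 nm against an E. coli enzyme standard; efficiency expressed as percent of Lipofectin.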
# CVI-P cells = test: Cytotoxicity of amphiphile/DNA complexes, percentage of survived cells
# plasmid DNA = test: DNA condensation/complexation, EtBr displacement assay; format: binding
# Summary of the method: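 Plasmid DNA (0.6 μg/well) was mixed with 0.002% EtBr in 20 mM HEPES–150 mM NaCl pH 7.4, then cationic liposomes were added at various +/− charge ratios.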
# [2] = amphiphile/DNA +/− charge ratio 0.5
# [3] = amphiphile/DNA +/− charge ratio 1
# [4] = amphiphile/DNA +/− charge ratio 2
# [5] = amphiphile/DNA +/− charge ratio 4
# [6] = amphiphile/DNA +/− charge ratio 8
melting point,"complexation, percentage of the maximum fluorescence signal when EtBr bound to DNA in the absence of an amphiphile (plasmid DNA; [2])","complexation, percentage of the maximum fluorescence signal when EtBr bound to DNA in the absence of an amphiphile (plasmid DNA; [3])","complexation, percentage of the maximum fluorescence signal when EtBr bound to DNA in the absence of an amphiphile (plasmid DNA; [4])","complexation, percentage of the maximum fluorescence signal when EtBr bound to DNA in the absence of an amphiphile (plasmid DNA; [5])","complexation, percentage of the maximum fluorescence signal when EtBr bound to DNA in the absence of an amphiphile (plasmid DNA; [6])",SMILES,"transfection, result in words ([1]; entry spans the charge ratios 8-0.5)",cytotoxicity as a percentage of survived cells (CVI-P cells; [2]),cytotoxicity as a percentage of survived cells (CVI-P cells; [3]),cytotoxicity as a percentage of survived cells (CVI-P cells; [4]),cytotoxicity as a percentage of survived cells (CVI-P cells; [5]),cytotoxicity as a percentage of survived cells (CVI-P cells; [6]),"transfection efficiency [1, 2]","transfection efficiency [1, 3]","transfection efficiency [1, 4]"
140 to 141 °C (dec.),"88,0%","81,94%","76,4%","71,5%","66,31%","CCCCCCCCCCCCCCCCOC(=O)C1=C(C)NC(C)=C(C(=O)OCCCCCCCCCCCCCCCC)C1c1ccc[n+](CC(N)=O)c1.I.[I-] [XX, 1-Carbamoylmethyl-3′,5′-bis(hexadecyloxycarbonyl)-1′,4′-dihydro-2′,6′-dimethyl-3,4′-bipyridinium iodide]",No signal,"100,59%","110,76%","59,96%","71,98%","92,09%",,,
124 to 126 °C (dec.),100%,"96,2%","91,03%","88,9%","93,7%","Br.CCCCCCCCCCCCCCOC(=O)C1=C(C)NC(C)=C(C(=O)OCCCCCCCCCCCCCC)C1c1ccc[n+](CCCCCCCCC)c1.[Br-] [XIV, 1′,4′-Dihydro-2′,6′-dimethyl-1-nonyl-3′,5′-bis(tetradecyloxycarbonyl)-3,4′-bipyridinium bromide]",,"103,98%","93,16%","51,04%","34,5%","44,62%","0,75 β-galactosidase units per well","3,38 β-galactosidase units per well","1,5 β-galactosidase units per well"
